Source: US5877185A, “Synergistic compositions useful as anti-tumor agents” (priority 1995, dated 1999)

Legend:
[1] = test system: human immunodeficiency virus HIV-1; conditions: human lymphocytes; cited from earlier work
[2] = test system: HIV-1 (MN strain) virions; assay: zinc loss from treatment of HIV-1 virions with NOBA; assay type: biochemical
Method: Experiments were performed to determine if NOBA is capable of ejecting zinc from intact virions. HIV-1 (MN strain) was produced, purified and concentrated as described in Bess et al., J. Virol. 66:840-847 (1992). The concentrated virus was diluted to 60 times that of culture fluid in TNE buffer (0.01M Tris-HCl, 0.1M NaCl, 1 mM EDTA, pH 7.2) and incubated with 3000 or 6000 μM NOBA at 37° C. The virus was then pelleted and washed with TNE buffer to remove weakly bound zinc. The quantity of zinc in the resulting viral pellets was determined as described in Bess et al., J. Virol. 66:840-847 (1992).

[3] = test system: neutrophil granulocytes; conditions: tumoricidal concentrations; cited from earlier work
[4] = test system: normal bone marrow progenitor cells; conditions: tumoricidal concentrations; cited from earlier work
[5] = test system: HIV-1 NC zinc fingers; conditions: isolated HIV-1 NC zinc fingers and intact HIV-1 virions; cited from earlier work
[6] = test system: leukemic and other malignant human cells; conditions: cited from earlier work
[7] = test system: HIV in intact human macrophages; conditions: Kun et al., Abstract 422A; cited from earlier work
[8] = test system: HL 60; assay: cytotoxicity of INO2 BA with and without BSO, HL 60; assay type: cell-based; conditions: Homo sapiens, INO2 BA alone, 48 hours
Method: (§1) The concentration of BSO was 1 mM for all cell lines except HT 144, where the concentration was 0.25 mM. Cells were seeded in the recommended growth medium at a density of 1.5×10^4 cell/cm^2 into 2 cm^2 wells. Drugs were added simultaneously 4 hours after seeding, and incubation was continued for 48 hours at 37° C. in a 5% CO2 atmosphere. For assessment of drug effects cells were detached by trypsinization and counted in a hemacytometer.
(§2) Cell lines Nos. 1-4 were obtained from Dr. C. Benz, University of California, San Francisco. MDA 468 and MCF-7 human mammary cancer lines, MCF-7-B-ADR drug-resistant mammary cancer line, Du 145 drug-resistant human prostate cancer line, HT 144 human melanoma cell line, Hep-G2 human hepatocellular carcinoma line, and PC-12 rat pheochromocytoma line were obtained from the University of California Cell Culture Facility.

[9] = test system: MCF-7-B-ADR; assay: cytotoxicity of INO2 BA with and without BSO, MCF-7-B-ADR; assay type: cell-based; conditions: Homo sapiens
Method: as §1, §2

[10] = test system: CEM-4; assay: cytotoxicity of INO2 BA with and without BSO, CEM-4; assay type: cell-based; conditions: Homo sapiens
Method: as §1, §2

[11] = test system: SIVmac239 or virus isolates in CEM ×174 cells; assay: SIV replication in CEM ×174 cells, SIV p27 core antigen assay; assay type: cell-based
Text: Infected cell cultures described in FIG. 4 were used for determination of supernatant virus titers by SIV p27 core antigen assay as described in Example XIV. The ordinate represents p27 ELISA performed on day 10 of the assay and the abscissa represents the concentration of INO2 BA alone (rear rows in panels A, B and C) and in combination with BSO (front rows in panels A, B and C).
CEM ×174 cells (3×10^5 /ml) were infected with 3.75 TCID50 /ml (50% tissue culture infectious dosage per ml of cell suspension) stock solution of SIVmac239 or virus isolates from SIVmac239-infected rhesus macaques on day 0. Uniform infection of cells was ensured by the infection of one cell population only per virus preparation. Three days post-infection, the cells were distributed (500 μl/well) into individual wells of a 24-well plate. Fresh medium containing INO2 BA concentrations ranging from 0 to 300 μM and/or BSO concentrations ranging from 0 to 0.25 mM were added to establish final 1-ml reaction volumes, and the cultures were further incubated for 4 days. The wells were then replenished with fresh CEM ×174 cells (3×10^5 /ml), INO2 BA and/or BSO were re-added at the same concentrations as in the original incubates, and incubation was continued for an additional 3 days. This procedure intends to mimic conditions of in vivo chemotherapy. Cell viability and virus titers in the supernatant were determined on day 10 (3 days after the addition of new cells) by the tetrazolium (MTT) method of Hansen et al., J. Immunol. Methods 119:208-210 (1982) and by the SIV p27 and reverse transcriptase (RT) assays described by Chuang et al., FEBS Lett. 326:140-144 (1993), respectively.
SIVmac p27 core antigen levels were determined by an enzyme immunoassay provided by Coulter Corp. (Hialeah, Fla.). The assay was performed according to the manufacturer's specifications.

[12] = test system: SIV 22803 (AZT-resistant); assay: AZT-resistant SIV propagation (syncytia formation), SIV 22803; assay type: cell-based; conditions: for Syncytia: BSO 0
Method: CEM × 174 (3 × 10^5 /ml) were infected with equal doses o
SIVmac239 or virus isolates from SIVmac239infected rhesus macaques (MMU
23686, 22803). Three days postinfection, INO2 BA concentrations
ranging from 0 to 300 μM with or without BSO were added, and incubated
for an additional 3 days. Cell cultures were then examined for syncytia
formation. The number of syncytia in cell cultures was counted in
arbitration fields under 40× magnification and scored as follows: […]

[13] = test system: L 1210 cells; assay: cytotoxic effect of IABP and INO2 BA, alone and combined, on L 1210 cell growth; assay type: cell-based, murine; conditions: Mus musculus, L1210, 72 h; INO2 BA 64 μM, three days; read-out: decrease of L 1210 cell proliferation
Method: 64 μM INO2 BA decreased L 1210 cell proliferation by approximately 80% over a three day growth period.

[14] = test system: Hep-G2; assay: cytotoxicity of INO2 BA with and without BSO, Hep-G2; assay type: cell-based; conditions: Homo sapiens
Method: as §1, §2

[15] = test system: Molt-4; assay: cytotoxicity of INO2 BA with and without BSO, Molt-4; assay type: cell-based; conditions: Homo sapiens, INO2 BA alone, 48 hours
Method: as §1, §2

## NC(=O)c1cccc(N=O)c1 [NOBA, 3-nitrosobenzamide]
[1]
  inhibition of HIV-1 infection: inhibit infection
[2]; 3,000 μM NOBA, 2 hr
  Zinc Loss: 52%
[2]; 3,000 μM NOBA, 2 hr, control 0.21
  Zinc, NOBA-Treated Sample: 0.11 µg/mL
[2]; 6,000 μM NOBA, 4 hr
  Zinc Loss: 83%
[2]; 6,000 μM NOBA, 4 hr, control 0.24
  Zinc, NOBA-Treated Sample: 0.04 µg/mL
[2]; 3000 or 6000 μM NOBA
  loss of viral proteins in the pellet: No significant loss
[3]
  effect on superoxide formation by neutrophil granulocytes: relatively harmless
[4]
  effect on normal bone marrow progenitor cells: relatively harmless
[5]
  zinc ejection: eject zinc
[6]
  suppression of proliferation: completely suppressed

## NC(=O)c1ccc(I)c([N+](=O)[O-])c1 [INO2 BA, 4-iodo-3-nitrobenzamide]
[7]
  inhibition of HIV replication: readily inhibited
[8]; read-out: I50
  IC50: 70 µM
[8]; read-out: LD100
  IC100: 125 µM
[9]; 48 h, read-out: LD100
  IC100: 220 µM
[9]; INO2 BA alone, 48 hours, read-out: I50
  IC50: 90 µM
[10]; CEM-4, 48 h, read-out: LD100
  IC100: 196 µM
[10]; CEM-4, INO2 BA alone, 48 hours, read-out: I50
  IC50: 80 µM
[11]; INO2 BA alone, FIG. 5A-C
  SIV p27 formation: almost complete inhibition
[11]; with BSO, CEM ×174 cells
  effect of GSH depletion by BSO on inhibitory effect on SIV replication: synergistically enhances
[12]; INO2 BA 25 μM
  Syncytia: ++ (10-20)
[12]; INO2 BA 50 μM
  Syncytia: ++ (10-20)
[12]; INO2 BA 100 μM
  Syncytia: ++ (10-20)
[12]; INO2 BA 200 μM
  Syncytia: - (0)
[12]; INO2 BA 300 μM
  Syncytia: - (0)
[12]; Simian immunodeficiency virus, 72 h, read-out: INO2 BA concentration abrogating cell fusion (syncytia)
  IC100: > 100 µM
[12]; with 0.05 mM BSO
  syncytia-blocking concentration of INO2 BA: 25 µM
[13]
  inhibition at 64 µM: ~80%
[14]; HepG2, 48 h, read-out: LD100
  IC100: 200 µM
[14]; HepG2, INO2 BA alone, 48 hours, read-out: I50
  IC50: 120 µM
[15]; read-out: I50
  IC50: 70 µM
[15]; read-out: LD100
  IC100: 196 µM
